The values below come from US9434724B2, “Quinuclidines for modulating alpha 7 activity” (priority 2014, dated 2016).

Series [1] deals with rat brain nicotinic receptor (α7 NAChR) (Rattus norvegicus (Rat), UniProt Q05941). The class given is binding.
A short description of series [2]: Metabolic stability assay in human liver microsomes (HLM). The class given is in vitro ADME. The settings on record: 1 μM. The procedure:
(§1) Protocol 1: Studies were carried out in human and rat liver microsomes (“HLM” and “RLM,” respectively). Human and rat liver microsomes were purchased from BD Gentest. DMSO stocks were prepared for the test compounds. Aliquots of the DMSO solutions were diluted to 0.5 mM by acetonitrile, then further diluted by liver microsomes/buffer to 1.5 μM. 30 μL of 1.5 μM solutions were mixed with 15 μL of 6 mM NADPH, which had been pre-warmed to 37° C., at a final test compound concentration of 1 μM. The plates were kept in a 37° C. water bath for the duration of the experiment. At each time point (0, 5, 15, 30, 45 minutes), 135 μL of acetonitrile was added into corresponding wells. After the final time point was sampled, the plates were shaken at a vibrator (IKA, MTS 2/4) for 10 min (600 rpm/min) and then centrifuged at 5594 g for 15 min (Thermo Multifuge×3R). Aliquots of the supernatant were removed, diluted 1:1 into distilled water, and analyzed by LC-MS/MS. The peak area response ratio to internal standard (PARR) of the compounds at 5, 15, 30, 45 minutes was compared to the PARR at time 0 to determine the percent of test compound remaining at each time point. Half-lives were calculated using Excel software, fitting to a single-phase exponential decay equation.
(§2) Protocol 2: Studies were carried out in human and rat liver microsomes. Buffer solutions were prepared as follows: Buffer A: 1.0 L of 0.1 M monobasic Potassium Phosphate buffer containing 1.0 mM EDTA; Buffer B: 1.0 L of 0.1 M Dibasic Potassium Phosphate buffer containing 1.0 mM EDTA; Buffer C: 0.1 M Potassium Phosphate buffer, 1.0 mM EDTA, pH 7.4 by titrating 700 mL of buffer B with buffer A while monitoring with a pH meter.
(§3) Reference compound (Ketanserin) and test compound spiking solutions were prepared as follows: 500 μM spiking solution: add 10 μL of 10 mM DMSO stock solution into 190 μL ACN; 1.5 μM spiking solution in microsomes (0.75 mg/mL): add 1.5 μL of 500 μM spiking solution and 18.75 μL of 20 mg/mL liver microsomes into 479.75 μL of Buffer C.
(§4) NADPH stock solution (6 mM) was prepared by dissolving NADPH into buffer C.
(§5) Assay procedure: 30 μL of 1.5 μM spiking solution containing 0.75 mg/mL microsomes solution was dispensed to the wells designated for […]. The plate was pre-incubated at 37° C. for 10 minutes. 15 μL of NADPH stock solution (6 mM) was added to the wells designated as Time 45, and the timer was started. At 30 mM, 15 mM, and 5 mM, 15 μL NADPH stock solution (6 mM) was added to the wells, respectively. At the end of incubation (0 mM), 135 μL of ACN containing IS was added to all the wells. Then 15 μL of NADPH stock solution (6 mM) was added to the wells designated as Time 0. After quenching, the reaction mixtures were centrifuged at 3220 g for […]. Following centrifugation, 50 μL of the supernatant was transferred from each well into a 96-well sample plate containing 50 μL of ultra-pure water (Millipore) for LC/MS analysis. The peak area response (PARR) ratio to internal standard of the compounds at 5, 15, 30, and 45 minutes was compared to the PARR at time 0 to determine the percent of test compound remaining at each time point. Half-lives were calculated using Excel software, fitting to a single-phase exponential decay equation.

Series [3] can be described thus: Metabolic stability assay in rat liver microsomes (RLM). The series is classed as in vitro ADME. Particulars: 1 μM. The procedure:
as §1, §2, §3, §4, §5

Series [4] can be described thus: Human plasma stability. The class given is in vitro ADME. The settings on record: plasma; for % Remaining @ 2 h: 5 μM. Here is the method:
Protocol 1: Studies were carried out in human plasma. All plasma was obtained from Bioreclamation and collected on sodium heparin. Plasma was adjusted to pH 7.4. A DMSO stock was first prepared for the test compound. An aliquot of the DMSO solution was dosed into 1 mL of plasma, which had been pre-warmed to 37° C., at a final test compound concentration of 1 μM. The vials were kept in a benchtop Thermomixer® for the duration of the experiment. Aliquots (100 μL) were taken at each time point (0, 15, 30, 60, and 120 minutes) and added to 96-well plates which had been pre-filled with 300 μL of acetonitrile. Samples were stored at 4° C. until the end of the experiment. After the final time point was sampled, the plate was mixed and then centrifuged at 3,000 rpm for 10 minutes. Aliquots of the supernatant were removed, diluted 1:1 into distilled water, and analyzed by LC-MS/MS. The peak area response ratio to internal standard (PARR) of the compound at 15, 30, 60 and 120 minutes was compared to the PARR at time 0 to determine the percent of test compound remaining at each time point. Half-lives were calculated using GraphPad software, fitting to a single-phase exponential decay equation.
Protocol 2: Studies were carried out in plasma. Plasma was prepared under approval of IRB and IACUC on sodium heparin. The pH of plasma was monitored and used within the range of pH 7.4 to pH 8.0. DMSO stocks were prepared for the test compounds. Aliquots of the DMSO solutions were diluted to 0.05 mM by 0.05 mM Sodium phosphate buffer with 0.5% BSA. Then 10 μL of 0.05 mM solutions were dosed into 90 μL of plasma in duplicates (n=2), which had been pre-warmed to 37° C., at a final test compound concentration of 5 μM. The plates were kept in a 37° C. water bath for the duration of the experiment. At each time point (0, 5, 15, 30, 45, 60, and 120 minutes), 400 μL of acetonitrile was added into corresponding wells. After the final time point was sampled, the plates were shaken at the vibrator (IKA, MTS 2/4) for 10 min (600 rpm/min) and then centrifuged at 5594 g for 15 min (Thermo Multifuge×3R). Aliquots of the supernatant were removed, diluted 1:1 into distilled water, and analyzed by LC-MS/MS. The peak area response ratio to internal standard (PARR) of the compounds at 5, 15, 30, 45, 60, and 120 minutes was compared to the PARR at time 0 to determine the percent of test compound remaining at each time point. Half-lives were calculated using Excel software, fitting to a single-phase exponential decay equation.

[5] abbreviates: Protocol No. 1, human liver microsomes.
Setting [6] is: Protocol No. 1, rat liver microsomes.

rat brain nicotinic receptor (α7 NAChR), sequence (Q05941 23-502 limits assumed): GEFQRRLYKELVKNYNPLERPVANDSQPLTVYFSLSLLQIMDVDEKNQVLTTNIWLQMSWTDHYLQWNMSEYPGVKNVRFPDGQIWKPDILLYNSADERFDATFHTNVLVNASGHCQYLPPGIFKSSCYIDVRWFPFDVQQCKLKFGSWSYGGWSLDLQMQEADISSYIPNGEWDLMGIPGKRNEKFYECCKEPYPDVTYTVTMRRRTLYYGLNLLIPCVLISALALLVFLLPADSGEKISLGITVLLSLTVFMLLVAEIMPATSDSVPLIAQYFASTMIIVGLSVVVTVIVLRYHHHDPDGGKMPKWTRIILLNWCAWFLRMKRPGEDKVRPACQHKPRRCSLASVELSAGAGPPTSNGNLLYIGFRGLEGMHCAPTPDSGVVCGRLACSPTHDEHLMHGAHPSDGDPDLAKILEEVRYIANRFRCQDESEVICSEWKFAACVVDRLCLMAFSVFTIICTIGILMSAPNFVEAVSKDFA

Regarding `COc1cc(C#N)cc2[nH]cc(C(=O)OCC34CCN(CC3)CC4)c12` [Compound 77, quinuclidin-4-ylmethyl 6-cyano-4-methoxy-1H-indole-3-carboxylate], in series [1], 423 nM corresponded to half-maximal inhibition (IC50) and affinity was put at a Ki of 363 nM. This compound returned an HLM in series [2] (human, microsomes) of 10.4452 mL/min/kg. Moreover, the RLM in series [3] (rat, microsomes) is on record as 87.668 mL/min/kg. In addition, the “% Remaining @ 2 h” value in series [4] (human, 2 h) is recorded as 71.03%.

With `Cl.O=C(OCC12CCN(CC1)CC2)c1c[nH]c2cc(Cl)cc(Cl)c12` [Compound 71, quinuclidin-4-ylmethyl 4,6-dichloro-1H-indole-3-carboxylate hydrochloride], in series [1], the midpoint of inhibition, the IC50, lay at 457 nM; the Ki (in general, the dissociation constant of the complex between target and ligand, obtained from inhibition or displacement) is 394 nM. For the same compound, the HLM in series [2] (setting [5]) amounted to 6.768 mL/min/kg. Besides, the RLM in series [3] (setting [6]) is listed as 121.175 mL/min/kg. Besides, in series [4] (Protocol No. 2, 37° C.), the “% Remaining @ 2 h” value amounted to 72.03%.

Consider `O=C(OCC12CCN(CC1)CC2)c1c[nH]c2cccc(C3CC3)c12` [Compound 61, Quinuclidin-4-ylmethyl 4-cyclopropyl-1H-indole-3-carboxylate], for which, in series [1], the IC50 (in general, the point on the concentration scale where inhibition reaches its midpoint) worked out at 1890 nM and the Ki is 1620 nM. Further, the HLM in series [2] (human, microsomes) is listed as 10.81 mL/min/kg. In series [3] (rat, microsomes), this compound showed an RLM of 434.65 mL/min/kg. Further, the “% Remaining @ 2 h” value in series [4] (human, 2 h) was 93.59%.

Take `COc1cc2c(C(=O)OCC34CCN(CC3)CC4)c[nH]c2cc1C.Cl` [Compound 79, quinuclidin-4-ylmethyl 5-methoxy-6-methyl-1H-indole-3-carboxylate hydrochloride]: the HLM in series [2] (setting [5]) stood at 10.72 mL/min/kg. The same compound had an RLM in series [3] (setting [6]) of 576.18 mL/min/kg. Moreover, the “% Remaining @ 2 h” value in series [4] (Protocol No. 2, 37° C.) is recorded as 56.12%.

In series [1], `COc1c(C)ccc2[nH]cc(C(=O)OCC34CCN(CC3)CC4)c12` [Compound 75, quinuclidin-4-ylmethyl 4-methoxy-5-methyl-1H-indole-3-carboxylate] displayed a concentration for half-maximal inhibition (IC50) of 52.5 nM and a Ki of 45 nM. The compound further gave an HLM in series [2] (human, microsomes) of 5.749 mL/min/kg. The same compound came in with an RLM in series [3] (rat, microsomes) of 474.267 mL/min/kg. In addition, the T1/2 result in series [4] (human) was “∞”. The “% Remaining @ 2 h” value in series [4] (human, 2 h) is given as 120.98%.

In series [1], `Cc1cc2c(C(=O)OCC34CCN(CC3)CC4)c[nH]c2cc1F` [Compound 58, quinuclidin-4-ylmethyl 6-fluoro-5-methyl-1H-indole-3-carboxylate] came in with an IC50 of 1810 nM and an inhibitory constant (Ki) of 1550 nM.

In series [1], `Cl.O=C(OCC12CCN(CC1)CC2)c1c[nH]c2cc(F)cc(Cl)c12` [Compound 64, quinuclidin-4-ylmethyl 4-chloro-6-fluoro-1H-indole-3-carboxylate hydrochloride] gave an IC50 of 337 nM and a Ki of 291 nM. In series [2] (setting [5]), the HLM was 2.7474 mL/min/kg. The same compound came in with an RLM in series [3] (setting [6]) of 77.4932 mL/min/kg. In series [4] (Protocol No. 2, 37° C.), the “% Remaining @ 2 h” value came to 76.61%.

In series [1], `O=C(OCC12CCN(CC1)CC2)c1c[nH]c2ccc(F)c(Br)c12` [Compound 67, quinuclidin-4-ylmethyl 4-bromo-5-fluoro-1H-indole-3-carboxylate] had an IC50 of 201 nM and a Ki of 173 nM. The HLM in series [2] (human, microsomes) is listed as 6.65 mL/min/kg. The same compound gave an RLM in series [3] (rat, microsomes) of 594.86 mL/min/kg. For the same compound, in series [4] (human, 2 h), the “% Remaining @ 2 h” value was 98.92%.

On to `COc1cc2c(C(=O)OCC34CCN(CC3)CC4)c[nH]c2cc1C#N` [Compound 76, quinuclidin-4-ylmethyl 6-cyano-5-methoxy-1H-indole-3-carboxylate], for which, in series [1], the IC50 was 643 nM and the affinity, expressed as Ki, was 552 nM. Also, the HLM in series [2] (human, microsomes) is listed as 20.5897 mL/min/kg. This compound also gave an RLM in series [3] (rat, microsomes) of 41.0701 mL/min/kg. The “% Remaining @ 2 h” value in series [4] (human, 2 h) is 72.92%.

In series [1], `Cc1ccc2[nH]cc(C(=O)OCC34CCN(CC3)CC4)c2c1Br` [Compound 68, quinuclidin-4-ylmethyl 4-bromo-5-methyl-1H-indole-3-carboxylate] came in with an IC50 of 266 nM and a Ki of 229 nM. This compound showed an HLM in series [2] (human, microsomes) of 3.48 mL/min/kg. Moreover, the RLM in series [3] (rat, microsomes) is on record as 1271.39 mL/min/kg. The T1/2 result in series [4] (human) is listed as “∞”. Also, the “% Remaining @ 2 h” value in series [4] (human, 2 h) came out at 103.13%.

In series [1], `Cc1cc2[nH]cc(C(=O)OCC34CCN(CC3)CC4)c2cc1Cl.Cl` [Compound 66, quinuclidin-4-ylmethyl 5-chloro-6-methyl-1H-indole-3-carboxylate hydrochloride] yielded an IC50 of 1190 nM and a Ki of 1010 nM. In addition, in series [2] (setting [5]), the HLM was 0 mL/min/kg. In series [3] (setting [6]), this compound returned an RLM of 934.845 mL/min/kg. Further, the “% Remaining @ 2 h” value in series [4] (Protocol No. 2, 37° C.) is 71.77%.

In series [1], `COc1cc2c(C(=O)OCC34CCN(CC3)CC4)c[nH]c2cc1Cl` [Compound 69, quinuclidin-4-ylmethyl 6-chloro-5-methoxy-1H-indole-3-carboxylate] came in with an IC50 of 394 nM and a Ki of 340 nM. The compound also gave an HLM in series [2] (human, microsomes) of 8.8 mL/min/kg. Besides, in series [3] (rat, microsomes), the RLM was 238.87 mL/min/kg. Besides, the “% Remaining @ 2 h” value in series [4] (human, 2 h) amounted to 78.66%.

In the case of `COc1cc2c(C(=O)OCC34CCN(CC3)CC4)c[nH]c2cc1O` [Compound 86, quinuclidin-4-ylmethyl 6-hydroxy-5-methoxy-1H-indole-3-carboxylate], the HLM in series [2] (human, microsomes) is reported as 7.35 mL/min/kg. In addition, the RLM in series [3] (rat, microsomes) turned out to be 17.38 mL/min/kg. Also, the “% Remaining @ 2 h” value in series [4] (human, 2 h) was determined as 22.88%.

For the compound `O=C(OCC12CCN(CC1)CC2)c1c[nH]c2ccc3c(c12)OCCO3` [Compound 81, quinuclidin-4-ylmethyl 2,3-dihydro-7H-[1,4]dioxino[2,3-e]indole-9-carboxylate], the HLM in series [2] (human, microsomes) is 5.94 mL/min/kg. The same compound displayed an RLM in series [3] (rat, microsomes) of 75.96 mL/min/kg. In addition, the “% Remaining @ 2 h” value in series [4] (human, 2 h) was 70.89%.
